In patent publication US20250041306A1, “TARGETED PROTEASE DEGRADATION (TED) PLATFORM” (EUBULUS BIOTHERAPEUTICS INC., priority 2021, published 2025):
Like-named read-outs stand apart in the source and are kept apart here.

Assays:
Assay type in all cases: cell-based
Human Colon Cancer HT-29 = assay: Cell proliferation experiment (Alarm blue), HT-29
Experimental: (§1) The cells were cultured in conventional ways, and the cells should be passed for at least 2 generations before plating. Cells at the logarithmic growth phase were collected, prepared into single cell suspensions and counted. The concentration of cells was adjusted to desired concentration, and cells were inoculated into a 96-well cell culture plate at 100 μl per well. 100 μL of complete medium of the test compound were added to each well, 2 replicate wells for each concentration were set up, and diluted with a 5-fold gradient, and continued to culture for 72 h. All cells were subjected to EC50 test for corresponding samples.
(§2) The fluorescence intensity of each well was detected using the Alarm blue method, and IC50 was calculated.
(§3) IC50 was calculated according to the following formula:
(§4) [formula] • wherein Min, Max and Slope represent the minimum, maximum and slope respectively.

[1] = system: Human Colon Cancer cells Colo205; assay: Cell proliferation experiment (Alarm blue), Colo205
Experimental: as §1, §2, §3, §4

[2] = system: Human Small Cell Lung Cancer H69; assay: Cell proliferation experiment (Alarm blue), H69
Experimental: as §1, §2, §3, §4

[3] = system: Human Small Cell Lung Cancer NCI-H82; assay: Cell proliferation experiment (Alarm blue), H82
Experimental: as §1, §2, §3, §4

[4] = system: human gastric carcinoma cells N87; assay: Cell proliferation experiment (Alarm blue), N87
Experimental: as §1, §2, §3, §4

[5] = Homo sapiens, HT-29 cells, 72 h culture, read-out: Anti cell proliferative activity EC50, HT-29
[6] = Homo sapiens, COLO 205, Colo205 cells, 72 h culture, read-out: Anti cell proliferative activity EC50, Colo205
[7] = Homo sapiens, NCI-H69, H69 cells, 72 h culture, read-out: Anti cell proliferative activity EC50, H69
[8] = Homo sapiens, NCI-H82, H82 cells, 72 h culture, read-out: Anti cell proliferative activity EC50, H82
[9] = Homo sapiens, 72 h, N87 cells, 72 h culture, read-out: Anti cell proliferative activity EC50, N87
[10] = Homo sapiens, COLO 205, 72 h, Colo205 cells, 72 h culture, read-out: Anti cell proliferative activity EC50, Colo205
[11] = Homo sapiens, NCI-H82, 72 h, H82 cells, 72 h culture, read-out: Anti cell proliferative activity EC50, H82
[12] = N87 cells, 72 h culture, read-out: Anti cell proliferative activity EC50, N87
[13] = Colo205 cells, 72 h culture, read-out: Anti cell proliferative activity EC50, Colo205
[14] = H69 cells, 72 h culture, read-out: Anti cell proliferative activity EC50, H69
[15] = H82 cells, 72 h culture, read-out: Anti cell proliferative activity EC50, H82

Row | Compound | EC50 [2, 7] | EC50 [4, 9] | EC50 [1, 10] | EC50 [3, 11] | other results
1 | C[C@H](NC(=O)CCCCCN1C(=O)C=CC1=O)C(=O)N[C@@H](C)C(=O)N[C@@H](CC(N)=O)C(=O)Nc1ccc(COC(=O)N(CCC#Cc2ccc3c(c2)CN(C2CCC(=O)NC2=O)C3=O)C2CCC(NC(=O)N3CCN(c4ccc(Nc5ncc(Cl)c(Nc6ccccc6C(N)=O)n5)cc4)CC3)CC2)cc1 (stereo partly drawn) [UB-181295] | 953 nM |  |  |  | EC50 (Human Colon Cancer HT-29; [5]): 484 nM; EC50 [1, 6]: 136 nM; EC50 [3, 8]: 106 nM
2 | CNC(=O)c1ccccc1Nc1nc(Nc2ccc(N3CCN(C(=O)N[C@H]4CC[C@@H](N(CCC#Cc5ccc6c(c5)CN(C5CCC(=O)NC5=O)C6=O)C(=O)OCCSSC[C@H](NC(=O)[C@H](CC(=O)O)NC(=O)[C@H](CC(=O)O)NC(=O)[C@H](CCCNC(=N)N)NC(=O)[C@H](CC(=O)O)NC(=O)CCC(NC(=O)c5ccc(NCc6cnc7nc(N)[nH]c(=O)c7n6)cc5)C(=O)O)C(=O)O)CC4)CC3)cc2)ncc1Cl (stereo partly drawn) [UB-181321] |  |  |  |  | EC50 ([4]; 72 h): > 1000 nM; EC50 (Human Colon Cancer HT-29; 72 h): > 1000 nM; EC50 ([1]; 72 h): 239 nM; EC50 ([2]; 72 h): > 1000 nM; EC50 ([3]; 72 h): 171 nM
3 | CNC(=O)c1ccccc1Nc1nc(Nc2ccc(N3CCN(C(=O)NC4CCC(N(CCC#Cc5ccc6c(c5)CN(C5CCC(=O)NC5=O)C6=O)C(=O)OCc5ccc(NC(=O)[C@H](CC(N)=O)NC(=O)[C@H](C)NC(=O)[C@H](C)NC(=O)CCCCCN6C(=O)CC(SC[C@H](N)C(=O)N[C@H](Cc7ccccc7)C(=O)N[C@H]7CSSC[C@@H](C(=O)N[C@H](CO)[C@@H](C)O)NC(=O)[C@H]([C@@H](C)O)NC(=O)[C@H](CCCCN)NC(=O)[C@@H](Cc8c[nH]c9ccccc89)NC(=O)[C@H](Cc8ccccc8)NC7=O)C6=O)cc5)CC4)CC3)cc2)ncc1Cl (stereo partly drawn) [UB-181247] |  |  |  |  | EC50 [4, 12]: 168 nM; EC50 (Human Colon Cancer HT-29; HT-29 cells, 72 h culture, read-out: Anti cell proliferative activity EC50, HT-29): > 1000 nM; EC50 [1, 13]: 169 nM; EC50 [2, 14]: > 1000 nM; EC50 [3, 15]: 91.4 nM
4 | CNC(=O)c1ccccc1Nc1nc(Nc2ccc(N3CCN(C(=O)NC4CCN(C(=O)CNCCC#Cc5ccc6c(c5)CN(C5CCC(=O)NC5=O)C6=O)CC4)CC3)cc2)ncc1Cl (stereo not drawn) [UB-181235] | > 1000 nM |  |  |  | EC50 ([4]; Homo sapiens, N87 cells, 72 h culture, read-out: Anti cell proliferative activity EC50, N87): 813 nM; EC50 [1, 6]: 144 nM; EC50 [3, 8]: 253 nM
5 | NC(=O)c1ccccc1Nc1nc(Nc2ccc(N3CCN(C(=O)NC4CCN(C(=O)CNCCC#Cc5ccc6c(c5)CN(C5CCC(=O)NC5=O)C6=O)CC4)CC3)cc2)ncc1Cl (stereo not drawn) [UB-181239] |  |  |  |  | EC50 [4, 12]: 132 nM; EC50 [1, 13]: 175 nM; EC50 [2, 14]: > 1000 nM; EC50 [3, 15]: 354 nM

Further lines, with some results ahead:

Row | EC50 [2, 7] | EC50 [4, 9] | EC50 [1, 10] | EC50 [3, 11] | Compound | other results
6 | > 1000 nM | 20.5 nM | 48.2 nM | 53.7 nM | CNC(=O)c1ccccc1Nc1nc(Nc2ccc(N3CCN(C(=O)N[C@H]4C[C@@H](NCCC#Cc5ccc6c(c5)CN(C5CCC(=O)NC5=O)C6=O)C4)CC3)cc2)ncc1Cl (stereo partly drawn) [UB-181250] | 
7 | 31.3 nM | 24.6 nM | 37.7 nM | 23.8 nM | NC(=O)c1ccccc1Nc1nc(Nc2ccc(N3CCN(C(=O)N[C@H]4C[C@@H](NCC#Cc5ccc6c(c5)CN(C5CCC(=O)NC5=O)C6=O)C4)CC3)cc2)ncc1Cl (stereo partly drawn) [UB-181258] | EC50 (Human Colon Cancer HT-29; [5]): 401 nM
8 | 19.1 nM | 111 nM | 33.9 nM | 20.9 nM | NC(=O)c1ccccc1Nc1nc(Nc2ccc(N3CCN(C(=O)N[C@H]4C[C@@H](NCCC#Cc5ccc6c(c5)CN(C5CCC(=O)NC5=O)C6=O)C4)CC3)cc2)ncc1Cl (stereo partly drawn) [UB-181259] | EC50 (Human Colon Cancer HT-29; [5]): 194 nM
9 | > 1000 nM | 66.1 nM | 52 nM | 386 nM | CNC(=O)c1ccccc1Nc1nc(Nc2ccc(N3CCC(C(=O)N4CCC5(CC4)CC(NCCC#Cc4ccc6c(c4)CN(C4CCC(=O)NC4=O)C6=O)C5)CC3)cc2)ncc1Cl (stereo not drawn) [UB-181249] | 
10 | > 1000 nM | 71.8 nM | 59.4 nM | 42.3 nM | CNC(=O)c1ccccc1Nc1nc(Nc2ccc(N3CCN(C(=O)N[C@H]4C[C@@H](NCC#Cc5ccc6c(c5)CN(C5CCC(=O)NC5=O)C6=O)C4)CC3)cc2)ncc1Cl (stereo partly drawn) [UB-181257] | 
11 | > 1000 nM | 71.9 nM | 133 nM | 32.4 nM | NC(=O)c1ccccc1Nc1nc(Nc2ccc(N3CCN(C(=O)N[C@H]4CC[C@@H](NC5CN(CCC#Cc6ccc7c(c6)CN(C6CCC(=O)NC6=O)C7=O)C5)CC4)CC3)cc2)ncc1Cl (stereo partly drawn) [UB-181251] | 
